Literature values in US6846831B2, “Method of treating the syndrome of lipodystrophy” (CPD, LLC, priority 2000, dated 2005).

Columns and labels:
δ opioid receptor = δ opioid receptor (Rattus norvegicus, UniProt P33533); conditions: read-out: δ IC50; homogenates of rat brain minus cerebellum; prototype ligand DADLE
κ opioid receptor = κ opioid receptor (Rattus norvegicus, UniProt P34975); conditions: read-out: κ IC50; homogenates of rat brain minus cerebellum; prototype ligand EKC
μ opioid receptor = μ opioid receptor (Rattus norvegicus, UniProt P33535); conditions: read-out: μ IC50; homogenates of rat brain minus cerebellum; prototype ligand DHM
Sequence of μ opioid receptor (P33535 whole entry): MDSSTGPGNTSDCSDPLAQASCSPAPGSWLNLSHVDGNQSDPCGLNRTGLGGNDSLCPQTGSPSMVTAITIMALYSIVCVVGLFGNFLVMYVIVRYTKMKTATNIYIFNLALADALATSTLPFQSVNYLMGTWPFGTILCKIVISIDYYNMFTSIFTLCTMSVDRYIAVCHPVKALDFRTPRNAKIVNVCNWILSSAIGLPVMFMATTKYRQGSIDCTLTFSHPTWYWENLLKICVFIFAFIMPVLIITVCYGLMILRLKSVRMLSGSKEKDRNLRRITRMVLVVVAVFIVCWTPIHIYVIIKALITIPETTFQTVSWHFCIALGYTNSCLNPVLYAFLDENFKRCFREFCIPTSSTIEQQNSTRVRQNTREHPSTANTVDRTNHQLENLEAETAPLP

Sequence of κ opioid receptor (P34975 whole entry): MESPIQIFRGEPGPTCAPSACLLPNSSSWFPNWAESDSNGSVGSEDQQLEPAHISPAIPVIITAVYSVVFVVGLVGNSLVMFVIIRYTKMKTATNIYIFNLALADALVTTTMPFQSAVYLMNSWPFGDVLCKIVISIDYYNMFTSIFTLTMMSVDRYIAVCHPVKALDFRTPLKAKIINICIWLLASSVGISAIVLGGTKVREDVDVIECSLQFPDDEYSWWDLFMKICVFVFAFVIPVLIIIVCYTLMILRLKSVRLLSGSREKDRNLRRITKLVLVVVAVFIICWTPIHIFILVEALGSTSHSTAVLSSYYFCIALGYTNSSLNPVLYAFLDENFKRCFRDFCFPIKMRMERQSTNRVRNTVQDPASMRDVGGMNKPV
Sequence of δ opioid receptor (P33533 whole entry): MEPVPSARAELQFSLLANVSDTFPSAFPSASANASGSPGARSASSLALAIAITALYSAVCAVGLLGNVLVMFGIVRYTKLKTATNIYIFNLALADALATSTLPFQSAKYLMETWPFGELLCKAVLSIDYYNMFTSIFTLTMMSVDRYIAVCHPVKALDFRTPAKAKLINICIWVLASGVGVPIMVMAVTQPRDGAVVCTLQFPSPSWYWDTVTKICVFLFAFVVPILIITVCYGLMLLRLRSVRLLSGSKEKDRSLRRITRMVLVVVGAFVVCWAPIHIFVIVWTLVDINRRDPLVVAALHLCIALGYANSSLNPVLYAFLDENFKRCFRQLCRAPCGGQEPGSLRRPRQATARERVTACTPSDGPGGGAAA

## C=C1CC[C@@]2(O)[C@H]3Cc4ccc(O)c5c4[C@@]2(CCN3CC2CC2)[C@H]1O5 [Nalmefene]
δ opioid receptor
  IC50: 6.1 nM
κ opioid receptor
  IC50: 5.3 nM
μ opioid receptor
  IC50: 1 nM
